From patent publication US20250101004A1, “NOVEL KALIRIN INHIBITORS FOR REGULATION OF SYNAPTIC PLASTICITY AND NEUROPATHIC PAIN TREATMENT” (Northwestern University, priority 2022, published 2025)
Read-outs that look alike come from different tables or passages of the source.

Experiments:
[1] = biological target: T1, kalirin GEF domain (Homo sapiens, UniProt O60229); assay: Fluorescence thermal shift (FTS) binding to kalirin GEF domain
[2] = biological target: T2, kalirin (Homo sapiens, UniProt O60229); assay: Miniaturized high-throughput GEF assay with bodipy-GDP loaded RAC1; assay type: biochemical
T2 construct: intrinsic activity of RAC1 in the absence of kalirin's GEF domain (No GEF)
Protocol: FIG. 11 illustrates that reaction rates from FIG. 10 were assessed and plotted against concentration.
This was assessed using a miniaturized high-throughput GEF assay, utilizing fluorescently labelled GDP (bodipy-GDP) loaded RAC1.

[3] = tested on: HEK293T cells; settings: 24 hours, Cell-titre Glo
Protocol: Cell viability was assessed by cell-titre glo assay. […] Indicated values indicate the required concentration to reduce viability by 50%.
Compound was incubated with heterologous cells (HEK293T) for 24 hours, and cell death was measured using the Cell-titre Glo assay.

[4] = tested on: primary cultured rat neurons; assay: Multi-electrode array (MEA) analysis of electrical activity of primary cultured neurons; assay type: cell-based
Protocol: FIG. 16A-16F show multi-electrode array analyses of the electrical activity of primary cultured neurons was assessed in the presence of compound B04, alongside the known RAC1 inhibitor NSC23776. […] Dose response analysis confirmed activity of B04 (123 μM, FIG. 16D and FIG. +16F). However, NSC23766 (FIG. 16C and FIG. 16E) had 10× efficacy (7.4 μM) compared to previous results.
Indicated PP01 analogues were incubated with rat primary cultured cortical neurons at 50 μM to assess the ability to recapitulate PP01s ability to inhibit neuronal activity.
48 well multi-electrode arrays (MEAs) were seeded with 50,000 primary cultured rat neurons and grown to 3WIV. Cells were incubated with NSC23766 or B04 at 50 and 100 μM for 4 hours alongside vehicle control (1% DMSO, FIG. 16A-16B). Neuronal activity was assessed in terms of weighted mean firing rate (number of events per second across active electrodes) and burst frequency (>5 events in 100 ms within a single electrode) and network burst frequency (FIG. 16A-16D).
DRC curve analyses of NS23766 (FIGS. 16C and 16E) and B04 (FIGS. 16D and 16F) was performed to assess compound efficacy. […] This is likely due to reported off-target inhibition of NMDAr (Hou et al 2014).
Plate was treated with vehicle control or B04 for 4 hours. The % change from baseline was recorded. […] Drug resistance from overexpression is a known phenomenon, supporting target engagement (Palmer et al, 2014).

[5] = biological target: T1, kalirin GEF domain; assay: Cellular GEF assay (RAC-Glisa) in cells transfected with kalirin-GEF domain; assay type: cell-based; design: Cells were transfected with the kalirin-GEF domain; expressed in transfected cells; host or cells: HEK293T (inferred from the same paragraph's toxicity test; the sentence on transfection says only 'Cells')
Text: Known compound, NSC23766 (FIGS. 14A and 14C), was run alongside B04 (FIGS. 14B and 14D) to confirm GEF inhibition (IC50 of NSC23766 matches published results).

Row | SMILES | binding to kalirin by FTS (thermodynamic stability of kalirin GEF domain) [1] | inhibition of kalirin biochemical GEF activity [2] | cellular toxicity / tolerability [3] | burst frequency ([4]; 4 hours, 50 and 100 μM) | firing rate (weighted mean firing rate) ([4]; 4 hours, 50 and 100 μM) | inhibitory efficacy in neurons compared to published reports and cellular activity ([4]; fold greater) [×] | IC50 ([4]; primary cultured neurons, 4 hours treatment, FIG. 16C-16F, read-out: dose response activity on neuronal electrical activity) [µM] | inhibition of kalirin activity (RAC1 activation) [5] | IC50 ([4]; PP01 analogues, FIG. 31A-31C, read-out: IC50, inhibition of neuronal activity) [µM] | inhibition of neuronal activity ([4]; rat primary cultured cortical neurons, 50 μM, 4 and 24 hours)
1 | Cc1cc2cc(Nc3ccnc(Nc4ccc5[nH]c(C)cc5c4)n3)ccc2[nH]1 [AZA1] | not bind to kalirin | inhibited GEF activity | Only NSC23766 and B04 were well tolerated | – | – | – | – | – | – | –
2 | O=C1C=CC(=O)N1c1cccc([N+](=O)[O-])c1 [NPPD] | not bind to kalirin | inhibited GEF activity | Only NSC23766 and B04 were well tolerated | – | – | – | – | – | – | –
3 | CCN(CC)CCCC(C)Nc1nc(C)cc(Nc2ccc3nc(C)cc(N)c3c2)n1 (stereo not shown) [NSC23766] | not bind to kalirin | inhibited GEF activity | well tolerated | reduced | reduced | 10 | 7.4 | inhibit kalirin activity | – | –
4 | CC(C)c1cn2c(NC(=O)Cc3c[nH]c4ccccc34)cccc2n1 [NW12, 2-(1H-indol-3-yl)-N-[2-(propan-2-yl)-1H-imidazo[1,2-a]pyridine-5-yl]acetamide] | – | – | suitable for in vitro cellular studies | – | – | – | – | – | < 5 | inhibited activity robustly
5 | O=C1C=C2C(=CCOC2O)O1 (stereo not shown) [patulin] | bond to kalirin | inhibited GEF activity | – | – | – | – | – | – | – | –
